Data: article PMC3648344 (BMC Structural Biology, 2013)

Biological target: T1, ypMnmC (Yersinia pestis, UniProt Q8ZD36)
T1 construct: gene mnmC
Details: selenomethionyl protein; co-purified FAD, none added; MnmC1 domain site; also in 3SGL with SAM

T1 sequence (Q8ZD36 whole entry, looked up): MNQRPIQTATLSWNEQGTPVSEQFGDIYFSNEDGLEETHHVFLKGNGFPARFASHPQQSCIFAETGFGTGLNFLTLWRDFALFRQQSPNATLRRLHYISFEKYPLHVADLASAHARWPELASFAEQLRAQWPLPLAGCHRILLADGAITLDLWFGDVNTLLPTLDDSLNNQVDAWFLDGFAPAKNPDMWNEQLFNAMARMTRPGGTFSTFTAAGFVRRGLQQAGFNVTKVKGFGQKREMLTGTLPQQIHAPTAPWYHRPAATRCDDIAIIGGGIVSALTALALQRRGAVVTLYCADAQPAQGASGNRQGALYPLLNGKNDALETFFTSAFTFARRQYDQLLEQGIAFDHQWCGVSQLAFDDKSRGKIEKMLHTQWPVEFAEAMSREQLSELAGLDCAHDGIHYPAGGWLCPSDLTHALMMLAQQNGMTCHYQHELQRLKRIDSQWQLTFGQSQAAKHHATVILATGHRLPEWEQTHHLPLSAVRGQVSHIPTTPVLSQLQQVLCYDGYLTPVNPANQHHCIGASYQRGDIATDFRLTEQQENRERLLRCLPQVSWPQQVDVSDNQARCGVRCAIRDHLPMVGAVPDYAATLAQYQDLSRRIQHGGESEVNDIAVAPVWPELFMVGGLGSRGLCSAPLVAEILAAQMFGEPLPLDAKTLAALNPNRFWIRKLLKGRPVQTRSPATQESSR

`Cc1cc2nc3c(=O)[nH]c(=O)nc-3n(C[C@H](O)[C@H](O)[C@H](O)COP(=O)(O)OP(=O)(O)OC[C@H]3O[C@@H](n4cnc5c(N)ncnc54)[C@H](O)[C@@H]3O)c2cc1C` [FAD] was tested, and the “X-ray crystal structure, 2.30 Å” value was “All three MnmC structures unambiguously exhibited bound FAD (Figure 4A)”.
